We go through 7 molecules from US8580794B2 (AbbVie Inc., priority 2009, dated 2013).

The target of assay [1] is GST-Bc1-2 (Homo sapiens, UniProt P10415). The assay can be described thus: Time Resolved-Fluorescence Resonance Energy Transfer (TR-FRET) Bcl-2 binding assay with F-Bak peptide probe. Particulars: GST-Bcl-2 1 nM, F-Bak probe 100 nM, Tb-anti-GST 1 nM; '<' = below limit of detection; read-out: TR-FRET Bcl-2 Binding Ki. (TR-FRET usually uses a lanthanide donor and a delayed reading to cut background.)

Assay [2] concerns RS4;11 cells. Kind of assay: RS4;11 Cell Viability Assay (CellTiter Glo).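 Further: RS4,11 acute lymphoblastic leukemia cells, viability as percent of untreated control cells, EC50 for loss of viable cells.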 It is filed as cell-based. Conditions: Homo sapiens, RS4-11, 48 h, 50,000 cells per well, 10% human serum. In general terms: ATP-based viability assays read luminescence as a measure of living cells.
Description: The acute lymphoblastic leukemia (ALL) cell line RS4;11 was used as the primary human cell line to assess the cellular activity of Bcl-2 selective agents in vitro and their efficacy in vivo.
Cell cytotoxicity EC50 values were assessed using CellTiter Glo (Promega) according to the manufacturer's recommendations. The EC50 values were determined as a percentage of viable cells following treatment compared to the untreated control cells.

Where only a bound is given, the exact number is not on record here.

Chain of GST-Bc1-2 (P10415 whole entry): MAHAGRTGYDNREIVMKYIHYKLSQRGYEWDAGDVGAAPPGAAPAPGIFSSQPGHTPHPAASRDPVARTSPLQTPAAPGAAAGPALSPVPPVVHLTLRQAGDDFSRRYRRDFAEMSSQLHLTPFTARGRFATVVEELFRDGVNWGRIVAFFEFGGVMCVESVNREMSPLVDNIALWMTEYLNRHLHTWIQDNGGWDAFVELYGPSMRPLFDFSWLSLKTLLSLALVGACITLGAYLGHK

Turning to `CC1(C)CCC(CN2CCN(c3ccc(C(=O)NS(=O)(=O)c4ccc(N[C@@H]5CCN(CCF)C5)c([N+](=O)[O-])c4)c(Oc4cnc5[nH]ccc5c4)c3)CC2)=C(c2ccc(Cl)cc2)C1` [Example 183, 4-(4-{[2-(4-chlorophenyl)-4,4-dimethylcyclohex-1-en-1-yl]methyl}piperazin-1-yl)-N-[(4-{[(3R)-1-(2-fluoroethyl)pyrrolidin-3-yl]amino}-3-nitrophenyl)sulfonyl]-2-(1H-pyrrolo[2,3-b]pyridin-5-yloxy)benzamide], the Ki in assay [1] was under 0.01 nM. Also, in assay [2], the EC50 worked out at 17.5 nM.

`COC(=O)[C@H]1CC[C@H](CNc2ccc(S(=O)(=O)NC(=O)c3ccc(N4CCN(CC5=C(c6ccc(Cl)cc6)CC(C)(C)CC5)CC4)cc3Oc3cnc4[nH]ccc4c3)cc2[N+](=O)[O-])CC1` [Example 379, methyl trans-4-{[(4-{[4-(4-{[2-(4-chlorophenyl)-4,4-dimethylcyclohex-1-en-1-yl]methyl}piperazin-1-yl)-2-(1H-pyrrolo[2,3-b]pyridin-5-yloxy)benzoyl]sulfamoyl}-2-nitrophenyl)amino]methyl}cyclohexanecarboxylate]: in assay [1], the Ki was under 0.01 nM. In assay [2], a half-maximal effect (EC50) was put at 19.4 nM.

On to `CC1(C)CCC(CN2CCN(c3ccc(C(=O)NS(=O)(=O)c4ccc(NC[C@H]5CC[C@H](C(=O)O)CC5)c([N+](=O)[O-])c4)c(Oc4cnc5[nH]ccc5c4)c3)CC2)=C(c2ccc(Cl)cc2)C1` [Example 380, trans-4-{[(4-{[4-(4-{[2-(4-chlorophenyl)-4,4-dimethylcyclohex-1-en-1-yl]methyl}piperazin-1-yl)-2-(1H-pyrrolo[2,3-b]pyridin-5-yloxy)benzoyl]sulfamoyl}-2-nitrophenyl)amino]methyl}cyclohexanecarboxylic acid], for which the Ki in assay [1] was under 0.01 nM. In assay [2], this molecule returned an EC50 of 134 nM.

`CC1(C)CCC(CN2CCN(c3ccc(C(=O)NS(=O)(=O)c4ccc(NC(=O)N5CCC(C#N)CC5)c([N+](=O)[O-])c4)c(Oc4cnc5[nH]ccc5c4)c3)CC2)=C(c2ccc(Cl)cc2)C1` [Example 381, N-(4-{[4-(4-{[2-(4-chlorophenyl)-4,4-dimethylcyclohex-1-en-1-yl]methyl}piperazin-1-yl)-2-(1H-pyrrolo[2,3-b]pyridin-5-yloxy)benzoyl]sulfamoyl}-2-nitrophenyl)-4-cyanopiperidine-1-carboxamide]: the Ki in assay [1] was under 0.01 nM. This molecule registered an EC50 in assay [2] of 1.41 nM.

Consider `COC[C@H]1CC[C@@H](CNc2ccc(S(=O)(=O)NC(=O)c3ccc(N4CCN(CC5=C(c6ccc(Cl)cc6)CC(C)(C)CC5)CC4)cc3Oc3cnc4[nH]ccc4c3)cc2[N+](=O)[O-])CC1` [Example 382, 4-(4-{[2-(4-chlorophenyl)-4,4-dimethylcyclohex-1-en-1-yl]methyl}piperazin-1-yl)-N-{[4-({[cis-4-(methoxymethyl)cyclohexyl]methyl}amino)-3-nitrophenyl]sulfonyl}-2-(1H-pyrrolo[2,3-b]pyridin-5-yloxy)benzamide], for which the Ki in assay [1] is under 0.01 nM. The same molecule showed an EC50 in assay [2] of 27 nM.

Regarding `COC[C@H]1CC[C@H](CNc2ccc(S(=O)(=O)NC(=O)c3ccc(N4CCN(CC5=C(c6ccc(Cl)cc6)CC(C)(C)CC5)CC4)cc3Oc3cnc4[nH]ccc4c3)cc2[N+](=O)[O-])CC1` [Example 383, 4-(4-{[2-(4-chlorophenyl)-4,4-dimethylcyclohex-1-en-1-yl]methyl}piperazin-1-yl)-N-{[4-({[trans-4-(methoxymethyl)cyclohexyl]methyl}amino)-3-nitrophenyl]sulfonyl}-2-(1H-pyrrolo[2,3-b]pyridin-5-yloxy)benzamide], the Ki in assay [1] is under 0.01 nM. The same molecule returned an EC50 in assay [2] of 12.4 nM.

On to `CC1(C)CCC(CN2CCN(c3ccc(C(=O)NS(=O)(=O)c4ccc5c(c4)nnn5CC4CCOCC4)c(Oc4cnc5[nH]ccc5c4)c3)CC2)=C(c2ccc(Cl)cc2)C1` [Example 384, 4-(4-{[2-(4-chlorophenyl)-4,4-dimethylcyclohex-1-en-1-yl]methyl}piperazin-1-yl)-2-(1H-pyrrolo[2,3-b]pyridin-5-yloxy)-N-{[1-(tetrahydro-2H-pyran-4-ylmethyl)-1H-benzotriazol-5-yl]sulfonyl}benzamide], for which the Ki in assay [1] turned out to be 0.704 nM. The EC50 in assay [2] was over 1000 nM.

A word on the Ki: it is a measure of affinity in units of concentration, obtained from inhibition or displacement. As a reminder, the EC50 is the concentration needed to bring the measured effect to its halfway point. Higher therefore signals lower potency in that assay.
